From publication PMC7915858, “Complementary Effects of Carbamylated and Citrullinated LL37 in Autoimmunity and Inflammation in Systemic Lupus Erythematosus” (International Journal of Molecular Sciences, 2021)

What was measured:
[1] = Net charge of the peptides; format: physicochemical
SLE serum antibody = test: ELISA for antibody reactivity of SLE sera to carb-/cit-/native LL37 and carb-REV, and its correlation with SLEDAI; format: binding, human; conditions: for Antibody reactivity in SLE patients with renal damage versus without renal damage: N=6 with and N=44 without renal damage, Mann-Whitney, Figure S3 panel a P 0.047
Method: Anti-native LL37/cit-LL37/carb-LL37 antibodies were measured as described. Briefly, 96-well flat-bottom plates (Non-Binding surface polystyrene, Corning, Glendale, AZ USA) were coated with 2 μg/mL of native LL37, cit-LL37 or carb-LL37 in carbonate buffer (0.1 M NaHCHO3, pH 9) for 2 h (or overnight) and washed four times with PBS plus 0.1% Tween-20. This washing buffer was used for washing at all steps. The blocking buffer containing 2% bovine serum albumin (BSA, Sigma) in PBS was used for at least 1 h (or overnight) to saturate unspecific binding sites. After washing, sera were diluted at various concentrations (usually at 1:100 or 1:200) in PBS + 2% BSA followed by 1 h incubation with a horseradish peroxidase–conjugated (HRP) goat anti-human IgG (Sigma-Aldrich), diluted 1:10,000 in PBS. The color was developed for 5 min with 3,3′,5,5′-tetramethylbenzidine (TMB) substrate (Sigma-Aldrich). The reaction was stopped by adding 50 μL of 2 N H2SO4 and absorbance determined at 450 nm with a reference wavelength of 540 nm. Responses were considered positive when the OD measured exceeded the mean OD values measured in healthy donors’ plasma plus two standard deviations (+2SD), calculated on the HD group values, as described.
(§1) Differences between mean values were assessed by Wilcoxon’s matched-pair signed rank test, to compare responses to antigens and control antigens in the same donor. We used Mann-Whitney test for comparison of T-cell and antibody responses between groups of patients and HD. Statistical significance was set at p < 0.05. Correlation analyses were performed by Spearman’s rank-correlation test. Data were analyzed by GraphPad Prism 7.0 or SPSS software.

SLE CD4 T-cells = test: T-cell proliferation (BrdU incorporation, flow cytometry); format: cell-based, human; conditions: for SLE patients responding by T-cell proliferation: BrdU, positive if SI > 3, carb-LL37 8 of 25, native LL37 17 of 31, cit-LL37 16 of 31 SLE patients
Method: PBMCs were purified from EDTA-treated blood, on Ficoll-Hypaque (Pharmacia Fine Chemicals, Uppsala, Sweden) and were incubated (10^5 cells/well) in 96-well-flat-bottom-microplates (BD) in T-cell-medium (RPMI 1640, 10% heat-inactivated human serum, HS, Gibco), 2 mM L-glutamine, 10 U/mL penicillin and 100 μg/mL streptomycin), with/without peptides. We performed assays on fresh cells, within 1-to-3 h from collection or on PBMCs frozen in 90% FCS−10% DMSO, whose viability we assessed by Trypan blue exclusion, with an inverted microscope. Recovery of live cells was between 65 and 85% of the frozen number. At day 3 and 5, BrdU was added (1 μg/mL). BrdU-incorporation was detected by APC-labeled anti-BrdU antibody (BD Pharmingen), after surface staining for CD4, CD3, CD8 and analyzed by flow cytometry (Gallios, BeckmanCoulter, Brea, CA, USA). Internal control for T-cell viability and proliferation was PHA treatment (2 μg/mL). SI for proliferation was calculated by dividing percent of BrdU-staining in the presence of each peptide antigen (LL37, carb-LL37, cit-LL37, LL37 reverse, REV; cit-LL37 reverse, cit-REV; carb-LL37 reverse, carb-REV) by the percent obtained in the untreated cells. SI for proliferation was considered positive when the values of percent of BrdU positive cells was three times higher than the values obtained with the control peptides (SI > 3). Assays were repeated twice with each patient. In rare cases in which background proliferation (culture with REV, cit-REV, carb-REV), exceeded antigen-specific proliferation (that is response to LL37, carb-LL37, cit-LL37), the assay was repeated three times. Concomitant phenotype analysis of LL37-responder T-cells included staining for CD3, CD4, CD8, CXCR5 (CXCR5 was assessed on BrdU/CD3/CD4-positive cells).
as §1

memory B-cells = test: Maturation of purified B-cells into plasma cells, flow cytometry; format: cell-based, human; conditions: 7 days; for Plasma cells (CD38highCD27highCD19neg): hrIL-2 50UI/ml; for Stimulation of B-cells to mature into plasma cells, peptide-DNA complex: peptide premixed with DNA (15 μg/mL), hrIL-2 50 UI/mL
Method: PBMCs were isolated by Ficoll-Paque centrifugation (as described above). Total B-cells were isolated by using the Human B-Cell Isolation Kit II, (Miltenyi Biotec, Bergisch Gladbach, Germany), from fresh PBMCs. The purity of B-cells was verified by flow cytometry using the monoclonal anti-human CD19 fluorescein isothiocyanate (FITC). The percentage of memory B-cells was assessed by flow cytometry using monoclonal anti-human CD19 fluorescein, anti-human CD27 allophycocyanin and anti-human CD38 Pacific Blue antibodies (BD Biosciences, San Jose, CA, USA). The majority of B-cells (>80%) were memory cells expressing CD19/CD27 and low CD38 [29].
LL37/cit-LL37/carb-LL37 were each premixed with DNA (15 μg/mL) and added to the B-cell cultures in RMPI 10% FCS, after a 15-min incubation at room temperature. At day 2, hrIL-2 at 50UI/mL was added to the cultures, which were kept in the incubator for 7 days.
Maturation of B-cells into plasma cells was investigated after 7 days culture by flow cytometry (Gallios, BeckmanCoulter, Brea, CA, USA) following surface staining with the following monoclonal antibodies: anti-human CD19 fluorescein-, CD27 allophycocyanin-, CD38 Pacific Blue-conjugated (BD Biosciences, CA, USA). Analysis of the FCS files was performed by FlowJo (BD, San Jose, CA, USA) or by Kaluza (Beckman Coulter, Indianapolis, IN, USA).

Substance	Net charge [1]	SLE patients showing an antibody response to the antigen (SLE serum antibody; ELISA, 2 μg/mL coated antigen, sera 1:100 or 1:200, OD 450 nm, positive: OD > mean HD + 2SD, carb-LL37 28 of 45, carb-REV 8 of 47 SLE patients) [%]	SLE serum antibody reactivity (OD) compared to healthy donors (SLE serum antibody; ELISA, OD, Mann-Whitney's test)	Antibody reactivity in SLE patients with renal damage versus without renal damage (SLE serum antibody; ELISA)	Correlation of antibody reactivity with SLEDAI (SLE serum antibody; Spearman)	Correlation of anti-carb-LL37 with anti-cit-LL37 antibody reactivity (SLE serum antibody; Spearman, Figure 2c)	Correlation of anti-carb-LL37 with anti-native LL37 antibody reactivity (SLE serum antibody; Spearman, Figure 2d left)	Proliferation of SLE CD4 T-cells (SLE CD4 T-cells; BrdU incorporation, stimulation index, Wilcoxon's test)	BrdU-positive CD3+CD4+ T-cells (SLE CD4 T-cells; BrdU staining, representative zebra plot, Figure S5a) [%]	SLE patients responding by T-cell proliferation (SLE CD4 T-cells) [%]	Correlation of T-cell responses to carb-LL37 and native LL37 (SLE CD4 T-cells; SI, Spearman, Figure 3b)	Correlation of T-cell proliferation with SLEDAI or autoantibodies to LL37 (SLE CD4 T-cells; SI, Spearman, Figure 4a,b)	Antigen efficiency compared to cit-LL37 (SLE CD4 T-cells; SLE cohort analyzed)	Plasma cells (CD38highCD27highCD19neg) (memory B-cells; 10 µM peptide + DNA, Figure S9b) [%]	Plasma cells (CD38highCD27highCD19neg) (memory B-cells; 10 µM peptide alone, Figure S9a) [%]	Plasma cells (CD38highCD27highCD19neg) (memory B-cells; 20 µM peptide + DNA, Figure S9c) [%]	Stimulation of B-cells to mature into plasma cells, peptide-DNA complex (memory B-cells)
L*LGDFFRK*SK*EK*IGKEFK*RIVQRIK*DFLRNLVPRTES [carb-LL37]	+1	62	significant SLE serum antibody reactivity	significantly higher anti-carb-LL37 antibody reactivity	A significant correlation was appreciated	correlated significantly with anti-cit-LL37 antibody reactivity	less but still in a significant manner	significant proliferation of SLE CD4 T-cells, although less efficiently than cit-LL37	18.3	32	correlated moderately	moderate but significant correlation	less efficient antigen compared to cit-LL37	14.73	7.27	28.09	maintained LL37 ability to stimulate the B-cells to mature into plasma cells
LLGDFFR(cit)KSKEKIGKEFKR(cit)IVQR(cit)IKDFLR(cit)NLVPR(cit)TES [cit-LL37, LL37 citrullinated at all five arginine sites]	+1	–	–	non-significant anti-cit- and anti-native-LL37 antibody increase	both responses also correlated with SLEDAI	–	–	–	–	52	–	–	–	–	–	–	abolishes the B-cell maturation into plasma cells
